Test [1] concerns the target T1, alpha2B receptor (Homo sapiens, UniProt P18089).
T1 construct: expressed in transfected cells; host or cells: NIH-3T3 cells
T1 sequence (P18089 1-450): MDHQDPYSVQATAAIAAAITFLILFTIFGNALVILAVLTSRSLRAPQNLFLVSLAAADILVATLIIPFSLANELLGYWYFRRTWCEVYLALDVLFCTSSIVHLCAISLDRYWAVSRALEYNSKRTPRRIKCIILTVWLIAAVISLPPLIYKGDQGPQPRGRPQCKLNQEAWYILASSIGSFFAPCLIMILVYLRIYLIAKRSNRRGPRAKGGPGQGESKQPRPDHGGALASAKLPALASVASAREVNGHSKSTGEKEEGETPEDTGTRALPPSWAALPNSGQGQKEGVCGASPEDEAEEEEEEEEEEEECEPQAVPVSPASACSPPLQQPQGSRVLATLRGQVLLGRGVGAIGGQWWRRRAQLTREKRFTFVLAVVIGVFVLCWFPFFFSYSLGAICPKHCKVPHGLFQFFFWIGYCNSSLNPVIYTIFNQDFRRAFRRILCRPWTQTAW
Put plainly: Receptor Selection and Amplification Technology (RSAT) assay, alpha 2B. Format: cell-based. The note with it: for Emax: read-out: Alpha 2B intrinsic activity (IA), in parentheses. On the procedure: (§1) Receptor Selection and Amplification Technology (RSAT) Assay
(§2) The RSAT assay measures a receptor-mediated loss of contact inhibition that results in selective proliferation of receptor-containing cells in a mixed population of confluent cells. The increase in cell number is assessed with an appropriate transfected marker gene such as β-galactosidase, the activity of which can be easily measured in a 96-well format. Receptors that activate the G protein, Gq, elicit this response. Alpha2 receptors, which normally couple to Gi, activate the RSAT response when coexpressed with a hybrid Gq protein that has a Gi receptor recognition domain, called Gq/i5.
(§3) NIH-3T3 cells are plated at a density of 2×10^6 cells in 15 cm dishes and maintained in Dulbecco's modified Eagle's medium supplemented with 10% calf serum. One day later, cells are cotransfected by calcium phosphate precipitation with mammalian expression plasmids encoding p-SV-β-galactosidase (5-10 μg), receptor (1-2 μg) and G protein (1-2 μg). 40 μg salmon sperm DNA may also be included in the transfection mixture. Fresh media is added on the following day and 1-2 days later, cells are harvested and frozen in 50 assay aliquots. Cells are thawed and 100 μl added to 100 μl aliquots of various concentrations of drugs in triplicate in 96-well dishes. Incubations continue 72-96 hr at 37° C. After washing with phosphate-buffered saline, β-galactosidase enzyme activity is determined by adding 200 μl of the chromogenic substrate (consisting of 3.5 mM o-nitrophenyl-β-D-galactopyranoside and 0.5% nonidet P-40 in phosphate buffered saline), incubating overnight at 30° C. and measuring optical density at 420 nm. The absorbance is a measure of enzyme activity, which depends on cell number and reflects a receptor-mediated cell proliferation. The efficacy or intrinsic activity is calculated as a ratio of the maximal effect of the drug to the maximal effect of a standard full agonist for each receptor subtype. Brimonidine, also called UK14304, the chemical structure of which is shown below, is used as the standard agonist for the alpha2A, alpha2B and alpha2c receptors. The EC50 is the concentration at which the drug effect is half of its maximal effect.
(§4) EC50 values are nanomolar. ND stands for “not determinable” at concentrations less than 10 micromolar. IA stands for “intrinsic activity.”

Test [2] addresses T2, alpha2C receptor (Homo sapiens, UniProt P18825).
T2 construct: expressed in transfected cells; host or cells: NIH-3T3 cells
T2 sequence (P18825 1-462): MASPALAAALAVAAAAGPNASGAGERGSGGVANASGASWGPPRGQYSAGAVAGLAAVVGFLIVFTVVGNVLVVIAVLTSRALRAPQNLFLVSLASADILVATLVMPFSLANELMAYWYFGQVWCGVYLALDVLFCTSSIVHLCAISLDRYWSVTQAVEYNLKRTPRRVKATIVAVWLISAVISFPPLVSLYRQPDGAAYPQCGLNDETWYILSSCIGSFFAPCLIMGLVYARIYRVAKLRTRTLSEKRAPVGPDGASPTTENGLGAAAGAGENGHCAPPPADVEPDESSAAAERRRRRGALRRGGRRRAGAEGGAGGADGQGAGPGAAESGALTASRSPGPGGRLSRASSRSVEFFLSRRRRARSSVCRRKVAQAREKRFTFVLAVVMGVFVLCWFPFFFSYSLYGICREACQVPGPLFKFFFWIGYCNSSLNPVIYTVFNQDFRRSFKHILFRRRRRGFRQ
Put plainly: Receptor Selection and Amplification Technology (RSAT) assay, alpha 2C. It is filed as cell-based. The note with it: for Emax: RSAT, maximal effect relative to standard full agonist brimonidine (UK14304), read-out: Alpha 2C intrinsic activity (IA), in parentheses. On the procedure: as §1, §2, §3, §4

Test [3] has as its target T3, alpha2A receptor (Homo sapiens, UniProt P08913).
T3 sequence (P08913 1-465): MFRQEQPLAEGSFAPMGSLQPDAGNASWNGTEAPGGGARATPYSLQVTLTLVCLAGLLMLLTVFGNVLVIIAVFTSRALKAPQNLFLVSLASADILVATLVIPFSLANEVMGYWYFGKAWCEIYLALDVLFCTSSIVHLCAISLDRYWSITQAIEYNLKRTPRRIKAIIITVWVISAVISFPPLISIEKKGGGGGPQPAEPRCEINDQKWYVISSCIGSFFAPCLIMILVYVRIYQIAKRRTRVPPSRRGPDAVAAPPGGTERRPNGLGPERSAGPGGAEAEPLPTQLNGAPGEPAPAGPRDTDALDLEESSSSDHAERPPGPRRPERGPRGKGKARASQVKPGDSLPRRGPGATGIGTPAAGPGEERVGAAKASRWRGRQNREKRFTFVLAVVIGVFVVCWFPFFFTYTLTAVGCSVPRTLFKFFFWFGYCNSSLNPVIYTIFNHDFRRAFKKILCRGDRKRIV
Kind of test: cell-based. As to conditions: for Emax: read-out: Alpha 2A intrinsic activity (IA), in parentheses.
Experimental: NIH-3T3 cells are plated at a density of 2×10^6 cells in 15 cm dishes and maintained in Dulbecco's modified Eagle's medium supplemented with 10% calf serum. One day later, cells are cotransfected by calcium phosphate precipitation with mammalian expression plasmids encoding p-SV-β-galactosidase (5-10 μg), receptor (1-2 μg) and G protein (1-2 μg). 40 μg salmon sperm DNA may also be included in the transfection mixture. Fresh media is added on the following day and 1-2 days later, cells are harvested and frozen in 50 assay aliquots. Cells are thawed and 100 μl added to 100 μl aliquots of various concentrations of drugs in triplicate in 96-well dishes. Incubations continue 72-96 hr at 37° C. After washing with phosphate-buffered saline, β-galactosidase enzyme activity is determined by adding 200 μl of the chromogenic substrate (consisting of 3.5 mM o-nitrophenyl-β-D-galactopyranoside and 0.5% nonidet P-40 in phosphate buffered saline), incubating overnight at 30° C. and measuring optical density at 420 nm. The absorbance is a measure of enzyme activity, which depends on cell number and reflects a receptor-mediated cell proliferation. The efficacy or intrinsic activity is calculated as a ratio of the maximal effect of the drug to the maximal effect of a standard full agonist for each receptor subtype. […] The EC50 is the concentration at which the drug effect is half of its maximal effect.

Where [4] appears, read: RSAT in transfected NIH-3T3 cells, nd = not determinable at concentrations less than 10 micromolar, read-out: Alpha 2C EC50.
Setting [5] is: RSAT in transfected NIH-3T3 cells, nd = not determinable at concentrations less than 10 micromolar, read-out: Alpha 2B EC50.

Structures are written as SMILES. Where two headings read alike, the source gives them in different places.

With `Cc1cccc2c1CCC2NC1=NCCN1` (stereo not shown), the results for the EC50 in test [1] and in test [2] (setting [4]) were 5.7 nM and 429 nM, respectively. Moreover, the Emax amounted to 98% in test [1], 38% in test [2] and 20% in test [3].

On to `Cc1cccc2c1CC[C@H]2NC1=NCCN1`, for which it took 33.4 nM to reach a half-maximal effect in test [1] (EC50). Moreover, the Emax in test [1] turned out to be 106%; in test [2] it was 11%; in test [3], 11%.

Regarding `Cc1cccc2c1CC[C@@H]2NC1=NCCN1`, the EC50 in test [1] is 4.5 nM; in test [2] it was 82 nM. The Emax in test [1] came to 125%; in test [2] it was 62%; in test [3] it was 16%.

Regarding `Brc1cccc2c1CCC2NC1=NCCN1` (stereo not shown), in test [1], the EC50 amounted to 12.2 nM. Moreover, the Emax amounted to 71% in test [1], 12% in test [2] and 7% in test [3].

For the molecule `c1ccc2c(c1)CCC2NC1=NCCN1` (stereo not shown), the EC50 in test [1] was determined as 17 nM; in test [2] (setting [4]), 207 nM. Further, the values for the Emax in test [1], in test [2] and in test [3] were 93%, 46% and 3%, respectively.

Molecule `c1ccc2c(c1)CC[C@@H]2NC1=NCCN1` returned a 50% effective concentration (EC50) in test [1] of 43 nM. Moreover, the Emax in test [1] came out at 82%; in test [2] it was 11%; in test [3] it was 4%.

Turning to `Cc1ccc2c(c1)C(NC1=NCCN1)CC2` (stereo not shown), the EC50 in test [1] (setting [5]) came to 473 nM. Besides, the Emax in test [1] came to 34%; in test [2] it was 7%; in test [3], 7%.

Turning to `c1ccc2c(c1)CC(NC1=NCCN1)C2`, the EC50 in test [1] (setting [5]) turned out to be 61 nM. For the same molecule, the Emax in test [1] amounted to 36%; in test [2], 5%; in test [3], 5%.

Take `Cc1cccc2c1CC[C@@H]2NC1=NCCS1`: the EC50 was 3.4 nM in test [1] (setting [5]), 23 nM in test [2] (setting [4]) and 143 nM in test [3]. Moreover, the figures for the Emax in test [1], in test [2] and in test [3] were 138%, 96% and 57%, respectively.

Regarding `CC1CC(NC2=NCCS2)c2ccccc21` (stereo not shown), the EC50 in test [1] was 10 nM; in test [2] it was 86 nM; in test [3], 180 nM. For the same molecule, the Emax in test [1] worked out at 99%; in test [2], 41%; in test [3], 25%.

Consider `CC1CC(NC2=NCCO2)c2ccccc21` (stereo not shown), for which the EC50 in test [1] (setting [5]) was determined as 2.2 nM; in test [2] (setting [4]), 19.8 nM; in test [3], 7 nM. Also, the results for the Emax in test [1], in test [2] and in test [3] were 112%, 50% and 25%, respectively.

Turning to `c1ccc2c(c1)CCC2NC1=NCCS1` (stereo not shown), the EC50 in test [1] was determined as 7.5 nM; in test [2] it was 54 nM. For the same molecule, the results for the Emax in test [1], in test [2] and in test [3] were 107%, 102% and 14%, respectively.

The values above are taken from patent US20110178143A1, “THERAPEUTIC COMPOUNDS” (ALLERGAN, INC., priority 2007, published 2011).
